Assay results taken from patent US8778966B2, “Quinolinone derivatives as PARP and tank inhibitors” (Janssen Pharmaceutica, NV, priority 2007, dated 2014).

Biological target: T1, TANK-2 enzyme (Homo sapiens, UniProt Q9H2K2)
T1 construct: made in house
T1 sequence (Q9H2K2 1-1166): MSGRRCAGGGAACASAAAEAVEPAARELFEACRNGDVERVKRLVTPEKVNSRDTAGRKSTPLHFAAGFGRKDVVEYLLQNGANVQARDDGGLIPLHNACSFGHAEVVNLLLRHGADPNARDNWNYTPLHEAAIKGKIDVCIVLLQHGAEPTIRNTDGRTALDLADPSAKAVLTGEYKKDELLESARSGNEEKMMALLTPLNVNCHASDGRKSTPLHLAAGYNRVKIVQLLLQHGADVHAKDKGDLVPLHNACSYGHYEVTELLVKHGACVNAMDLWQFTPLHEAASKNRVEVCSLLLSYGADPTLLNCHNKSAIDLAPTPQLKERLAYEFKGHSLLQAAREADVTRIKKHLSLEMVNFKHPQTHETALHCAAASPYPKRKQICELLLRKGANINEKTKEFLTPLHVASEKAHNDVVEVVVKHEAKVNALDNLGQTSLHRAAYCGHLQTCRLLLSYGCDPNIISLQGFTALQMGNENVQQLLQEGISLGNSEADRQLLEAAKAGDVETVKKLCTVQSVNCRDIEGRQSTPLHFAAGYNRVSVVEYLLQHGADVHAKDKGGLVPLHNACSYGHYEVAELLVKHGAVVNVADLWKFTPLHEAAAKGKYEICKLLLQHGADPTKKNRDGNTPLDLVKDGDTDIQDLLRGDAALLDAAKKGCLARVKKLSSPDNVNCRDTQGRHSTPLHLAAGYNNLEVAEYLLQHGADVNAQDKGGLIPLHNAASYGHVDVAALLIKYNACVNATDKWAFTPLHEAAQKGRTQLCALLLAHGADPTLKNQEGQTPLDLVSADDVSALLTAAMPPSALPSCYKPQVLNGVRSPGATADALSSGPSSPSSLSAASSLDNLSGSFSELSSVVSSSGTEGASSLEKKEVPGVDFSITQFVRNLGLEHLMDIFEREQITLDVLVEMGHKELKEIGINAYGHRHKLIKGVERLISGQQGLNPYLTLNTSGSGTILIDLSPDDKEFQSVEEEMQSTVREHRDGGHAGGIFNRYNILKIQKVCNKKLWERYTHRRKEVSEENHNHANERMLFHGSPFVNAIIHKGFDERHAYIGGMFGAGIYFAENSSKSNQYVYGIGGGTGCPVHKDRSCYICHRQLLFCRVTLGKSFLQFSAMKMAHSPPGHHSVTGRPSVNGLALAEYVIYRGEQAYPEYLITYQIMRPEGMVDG
Test: In vitro Scintillation Proximity Assay (SPA) for TANK-2 inhibitory activity
Assay type: biochemical
Details: for IC50: read-out: in vitro SPA assay TANK-2 pIC50 (converted)
Summary of the method: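 Results are pIC50 values, with IC50 interpolated linearly around 50% of blank-subtracted control cpm. They come from a scintillation proximity read of TANK-2 (8 μg/ml) self-modification with [3H]-NAD+/NAD, incubated 120 min at room temperature in pH 7.4 Tris buffer containing MgCl2 and DTT. Compounds were first screened at 10^−5 M.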

Row | Compound | IC50 [µM] | in vitro SPA assay TANK-2 pIC50
1 | CCc1cc2ccc([C@](C)(C#N)Cc3ccccc3)cc2[nH]c1=O (single isomer, unassigned) [Compound 45] | 0.0251 | 
2 | CCc1cc2ccc([C@@](C)(C#N)Cc3ccccc3)cc2[nH]c1=O (single isomer, unassigned) [Compound 46] | 0.0251 | 
3 | CCc1cc2ccc(C(C)(C#N)CC3COc4ccccc4O3)cc2[nH]c1=O (single isomer, unassigned) [Compound 47] | 0.316 | 
4 | CCc1cc2ccc([C@](C)(C#N)Cc3nc(OC)cc(OC)n3)cc2[nH]c1=O (single isomer, unassigned) [Compound 52] | 0.2 | 
5 | CCc1cc2ccc([C@@](C)(C#N)Cc3nc(OC)cc(OC)n3)cc2[nH]c1=O (single isomer, unassigned) [Compound 53] | 0.158 | 
6 | CCc1cc2ccc(C(C)(C#N)Cc3cccc(C#C[Si](C)(C)C)c3)cc2[nH]c1=O (stereo not shown) [Compound 1] | 3.98 | 
7 | CCc1cc2ccc(C(C)(C#N)Cc3cccc(CN(C)C)c3)cc2[nH]c1=O (stereo not shown) [Compound 7] | 0.158 | 
8 | CCc1cc2ccc(C(C)(C#N)Cc3cccc(COC)c3)cc2[nH]c1=O (stereo not shown) [Compound 8] | 0.0794 | 
9 | CCc1cc2ccc(C(C)(C#N)Cc3cccc(CO)c3)cc2[nH]c1=O (stereo not shown) [Compound 9] | 0.0631 | 
10 | CCc1cc2ccc(C(C#N)(Cc3ccccc3)CC3CC3)cc2[nH]c1=O (stereo not shown) [Compound 28] | 0.316 | 
11 | CC(C#N)(Cc1ccccc1)c1ccc2cc(CO)c(=O)[nH]c2c1 (stereo not shown) [Compound 40] | 0.158 | 
12 | CCc1cc2ccc(C(C)(C#N)Cc3c(F)ccc(C)c3F)cc2[nH]c1=O (stereo not shown) [Compound 41] | 0.0794 | 
13 | CCc1cc2ccc(C(C)(C#N)Cc3nnsc3Cl)cc2[nH]c1=O (stereo not shown) [Compound 42] | 0.0794 | 
14 | CCc1cc2ccc(C(C)(C#N)Cc3nc(OC)cc(OC)n3)cc2[nH]c1=O (stereo not shown) [Compound 43] | 0.158 | 
15 | CCc1cc2ccc(C(C)(C#N)Cc3ccccc3)cc2[nH]c1=O (stereo not shown) [Compound 44] | 0.0398 | 
16 | CCc1cc2ccc(C(C)(C#N)Cc3cccc(Br)c3)cc2[nH]c1=O (stereo not shown) [Compound 49] | 0.0316 | 
17 | CCOP(=O)(OCC)c1cccc(CC(C)(C#N)c2ccc3cc(CC)c(=O)[nH]c3c2)c1 (stereo not shown) [Compound 50] | 0.2 | 
18 | CCc1cc2ccc(C(C)(C#N)Cc3cccc(C#N)c3)cc2[nH]c1=O (stereo not shown) [Compound 51] | 0.0398 | 
19 | CCc1cc2ccc(C(C)(C#N)CCOc3ccc([N+](=O)[O-])cc3)cc2[nH]c1=O (stereo not shown) [Compound 54] | 0.158 | 
20 | CCc1cc2ccc(C(C)(C#N)Cc3cccc(CN4CCN(C)CC4)c3)cc2[nH]c1=O (stereo not shown) [Compound 57] | 0.126 | 
21 | CCc1cc2ccc(C(C)(C#N)Cc3cccc(CN4CCOCC4)c3)cc2[nH]c1=O (stereo not shown) [Compound 58] | 0.316 | 
22 | CCc1cc2ccc(C(C)(C#N)Cc3cccc(CNC)c3)cc2[nH]c1=O (stereo not shown) [Compound 59] | 0.0794 | 
23 | CCc1cc2ccc(C(C)(C#N)Cc3cccc(CNCCOC)c3)cc2[nH]c1=O (stereo not shown) [Compound 60] | 0.0631 | 

Row | Compound | IC50 [µM] | in vitro SPA assay TANK-2 pIC50
24 | CCc1cc2ccc(C(C)(C#N)Cc3cccc(CNCCN4CCOCC4)c3)cc2[nH]c1=O (stereo not shown) [Compound 61] | 0.1 | 
25 | CCc1cc2ccc(C(C)(C#N)Cc3cccc(C(=O)NCCOC)c3)cc2[nH]c1=O (stereo not shown) [Compound 62] | 0.0794 | 
26 | CCc1cc2ccc(C(C)(C#N)Cc3cccc(C(=O)N(C)C)c3)cc2[nH]c1=O (stereo not shown) [Compound 63] | 0.2 | 
27 | CCc1cc2ccc(C(C)(C#N)Cc3cccc(N4CCNCC4)c3)cc2[nH]c1=O (stereo not shown) [Compound 64] | 0.0251 | 
28 | CCc1cc2ccc(C(C)(C#N)Cc3cccc(N4CCCCC4)c3)cc2[nH]c1=O (stereo not shown) [Compound 65] | 0.0398 | 
29 | CCc1cc2ccc(C(C)(C#N)Cc3cccc(N4CCN(C)CC4)c3)cc2[nH]c1=O (stereo not shown) [Compound 66] | 0.0316 | 
30 | CCc1cc2ccc(C(C)(C#N)Cc3cccc(OCC4CC4)c3)cc2[nH]c1=O (stereo not shown) [Compound 67] | 0.126 | 
31 | CCc1cc2ccc(C(C)(C#N)Cc3cccc(OCCCN4CCOCC4)c3)cc2[nH]c1=O (stereo not shown) [Compound 68] | 0.0631 | 
32 | CCc1cc2ccc(C(C)(C#N)Cc3cccc(OCCCN4CCN(C)CC4)c3)cc2[nH]c1=O (stereo not shown) [Compound 69] | 0.0631 | 
33 | Cc1cc2ccc(C(C)(C#N)Cc3noc(-c4cccc(C(F)(F)F)c4)n3)cc2[nH]c1=O (stereo not shown) [Compound 70] | 0.2 | 
34 | Cc1cc2ccc(C(C)(C#N)Cc3cc4ccccc4s3)cc2[nH]c1=O (stereo not shown) [Compound 71] | 0.251 | 
35 | Cc1cc2ccc(C(C)(C#N)Cc3ccc(Cl)s3)cc2[nH]c1=O (stereo not shown) [Compound 72] | 0.251 | 
36 | Cc1cc2ccc(C(C)(C#N)Cc3ccc(C(F)(F)F)o3)cc2[nH]c1=O (stereo not shown) [Compound 73] | 0.251 | 
37 | Cc1cc2ccc(C(C)(C#N)Cc3cccc4cccnc34)cc2[nH]c1=O (stereo not shown) [Compound 74] | 0.126 | 
38 | Cc1cc2ccc(C(C)(C#N)Cc3nc4ccccc4s3)cc2[nH]c1=O (stereo not shown) [Compound 75] | 0.251 | 
39 | Cc1cc2ccc(C(C)(C#N)Cc3ccccc3)cc2[nH]c1=O (stereo not shown) [Compound 76] | 0.0316 | 
40 | CCc1cc2ccc(C(C)(C#N)Cc3ccc(OC)c(C#N)c3)cc2[nH]c1=O (stereo not shown) [Compound 77] | 0.1 | 
41 | CCc1cc2ccc(C(C)(C#N)Cc3cc(C)ccc3C)cc2[nH]c1=O (stereo not shown) [Compound 78] | 0.158 | 
42 | CCc1cc2ccc(C(C)(C#N)Cc3ccc(F)c(C)c3)cc2[nH]c1=O (stereo not shown) [Compound 79] | 0.0794 | 
43 | CCc1cc2ccc(C(C)(C#N)Cc3cc(Cl)ccc3OC)cc2[nH]c1=O (stereo not shown) [Compound 80] | 0.126 | 
44 | CCc1cc2ccc(C(C)(C#N)Cc3cccc(Br)c3C)cc2[nH]c1=O (stereo not shown) [Compound 81] | 0.1 | 
45 | CCc1cc2ccc(C(C)(C#N)Cc3ccc(Cl)c(C(F)(F)F)c3)cc2[nH]c1=O (stereo not shown) [Compound 82] | 0.398 | 
46 | CCc1cc2ccc(C(C)(C#N)Cc3ccc(C)c(F)c3F)cc2[nH]c1=O (stereo not shown) [Compound 83] | 0.0794 | 

Row | Compound | IC50 [µM] | in vitro SPA assay TANK-2 pIC50
47 | CCc1cc2ccc(C(C)(C#N)Cc3c(C)cccc3C)cc2[nH]c1=O (stereo not shown) [Compound 84] | 0.126 | 
48 | CCc1cc2ccc(C(C)(C#N)Cc3nc4ccccc4o3)cc2[nH]c1=O (stereo not shown) [Compound 85] | 0.1 | 
49 | CCc1cc2ccc(C(C)(C#N)Cc3csc(C)n3)cc2[nH]c1=O (stereo not shown) [Compound 86] | 0.158 | 
50 | CCc1cc2ccc(C(C)(C#N)Cc3ccc4nccnc4c3)cc2[nH]c1=O (stereo not shown) [Compound 87] | 0.0501 | 
51 | CCc1cc2ccc(C(C)(C#N)Cc3c(C)c(C)cc(C)c3C)cc2[nH]c1=O (stereo not shown) [Compound 88] | 0.2 | 
52 | CCc1cc2ccc(C(C)(C#N)Cc3c(C)c(C)c(C)c(C)c3C)cc2[nH]c1=O (stereo not shown) [Compound 89] | 0.316 | 
53 | CCc1cc2ccc(C(C)(C#N)Cc3cc(Cl)cc4c3OCOC4)cc2[nH]c1=O (stereo not shown) [Compound 90] | 0.0794 | 
54 | CCc1cc2ccc(C(C)(C#N)Cc3cc4c(cc3Cl)OCO4)cc2[nH]c1=O (stereo not shown) [Compound 91] | 0.0631 | 
55 | CCc1cc2ccc(C(C)(C#N)Cc3cc(Cl)cc4c3OCOC4)cc2[nH]c1=O (stereo not shown) [Compound 92] |  | 7.1
56 | CCc1cc2ccc(C(C)(C#N)Cc3nncn3C)cc2[nH]c1=O (stereo not shown) [Compound 93] | 0.398 | 
57 | CCc1cc2ccc(C(C)(C#N)Cc3cccc4nnn(C)c34)cc2[nH]c1=O (stereo not shown) [Compound 94] | 0.251 | 
58 | CCc1cc2ccc(C(C)(C#N)Cc3nn(C)c4ccccc34)cc2[nH]c1=O (stereo not shown) [Compound 95] | 0.0794 | 
59 | CCc1cc2ccc(C(C)(C#N)Cc3cn4ccccc4n3)cc2[nH]c1=O (stereo not shown) [Compound 96] | 0.1 | 
60 | CCc1cc2ccc(C(C)(C#N)Cc3cccnc3)cc2[nH]c1=O (stereo not shown) [Compound 97] | 0.0631 | 
61 | CCc1cc2ccc(C(C)(C#N)Cc3ccncc3)cc2[nH]c1=O (stereo not shown) [Compound 98] | 0.0316 | 
62 | CCc1cc2ccc(C(C)(C#N)Cc3cc(Cl)ccc3Cl)cc2[nH]c1=O (stereo not shown) [Compound 99] | 0.0794 | 
63 | CCc1cc2ccc(C(C)(C#N)Cc3ccccc3C#N)cc2[nH]c1=O (stereo not shown) [Compound 101] | 0.0398 | 
64 | CCc1cc2ccc(C(C)(C#N)Cc3ccccc3OC(F)(F)F)cc2[nH]c1=O (stereo not shown) [Compound 102] | 0.2 | 
65 | CCc1cc2ccc(C(C)(C#N)Cc3ccccc3C(F)(F)F)cc2[nH]c1=O (stereo not shown) [Compound 103] | 0.0794 | 
66 | Cc1cc2ccc(C(C)(C#N)Cc3cc4ccccc4[nH]3)cc2[nH]c1=O (stereo not shown) [Compound 234] | 0.794 | 
67 | CCc1cc2ccc(C(C)(C#N)Cc3ccc(F)c(C#N)c3)cc2[nH]c1=O (stereo not shown) [Compound 267] | 0.251 | 
